Source: PubChem BioAssay AID1259407 (Chemical Carcinogenesis Research Information System (CCRIS), 2018)
The source made the active and inactive calls. How the calls were made is not given here.

Tested on: CCRIS mutagenicity, Ames/micronucleus/aberration tests
Experiment: CCRIS mutagenicity studies
[1] = Test System: AMES SALMONELLA TYPHIMURIUM, Strain/Indicator: TA98, Metabolic Activation: NONE, Method: PREINCUBATION
[2] = Test System: AMES SALMONELLA TYPHIMURIUM, Strain/Indicator: TA100, Metabolic Activation: NONE, Method: PREINCUBATION
[3] = Test System: AMES SALMONELLA TYPHIMURIUM, Strain/Indicator: TA1535, Metabolic Activation: NONE, Method: PREINCUBATION
[4] = Test System: E. COLI, Strain/Indicator: WP2 UVRA, Metabolic Activation: NONE, Method: STANDARD PLATE
[5] = Test System: AMES SALMONELLA TYPHIMURIUM, Strain/Indicator: TA100, Metabolic Activation: NONE, Method: STANDARD PLATE

S=C=Nc1cccc2ccccc12
mutagenic call (Test System: AMES SALMONELLA TYPHIMURIUM, Strain/Indicator: TA97, Metabolic Activation: HAMSTER, LIVER, S-9, AROCLOR 1254 (30%), Method: PREINCUBATION): active; positive | mutagenic call (Test System: AMES SALMONELLA TYPHIMURIUM, Strain/Indicator: TA97, Metabolic Activation: NONE, Method: PREINCUBATION): inactive; negative | mutagenic call (Test System: AMES SALMONELLA TYPHIMURIUM, Strain/Indicator: TA97, Metabolic Activation: RAT, LIVER, S-9, AROCLOR 1254 (10 OR 30%), Method: PREINCUBATION): inactive; negative | mutagenic call (Test System: AMES SALMONELLA TYPHIMURIUM, Strain/Indicator: TA98, Metabolic Activation: HAMSTER, LIVER, S-9, AROCLOR 1254 (30%), Method: PREINCUBATION): inactive; negative | mutagenic call [1]: inactive; negative | mutagenic call (Test System: AMES SALMONELLA TYPHIMURIUM, Strain/Indicator: TA98, Metabolic Activation: RAT, LIVER, S-9, AROCLOR 1254 (1O OR 30%), Method: PREINCUBATION): inactive; negative | mutagenic call (Test System: AMES SALMONELLA TYPHIMURIUM, Strain/Indicator: TA100, Metabolic Activation: HAMSTER, LIVER, S-9, AROCLOR 1254 (10%), Method: PREINCUBATION): inactive; negative | mutagenic call (Test System: AMES SALMONELLA TYPHIMURIUM, Strain/Indicator: TA100, Metabolic Activation: HAMSTER, LIVER, S-9, AROCLOR 1254 (30%), Method: PREINCUBATION): active; positive | mutagenic call [2]: inactive; negative | mutagenic call (Test System: AMES SALMONELLA TYPHIMURIUM, Strain/Indicator: TA100, Metabolic Activation: RAT, LIVER, S-9, AROCLOR 1254 (10%), Method: PREINCUBATION): inactive; negative | mutagenic call (Test System: AMES SALMONELLA TYPHIMURIUM, Strain/Indicator: TA100, Metabolic Activation: RAT, LIVER, S-9, AROCLOR 1254 (30%), Method: PREINCUBATION): inactive; negative | mutagenic call (Test System: AMES SALMONELLA TYPHIMURIUM, Strain/Indicator: TA1535, Metabolic Activation: HAMSTER, LIVER, S-9, AROCLOR 1254 (10 OR 30%), Method: PREINCUBATION): inactive; negative | mutagenic call [3]: inactive; negative | mutagenic call (Test System: AMES SALMONELLA TYPHIMURIUM, Strain/Indicator: TA1535, Metabolic Activation: RAT, LIVER, S-9, AROCLOR 1254 (10 OR 30%), Method: PREINCUBATION): inactive; negative | mutagenic call (Test System: AMES SALMONELLA TYPHIMURIUM, Strain/Indicator: TA1537, Metabolic Activation: HAMSTER, LIVER, S-9, AROCLOR 1254 (30%), Method: PREINCUBATION): inactive; negative | mutagenic call (Test System: E. COLI, Strain/Indicator: WP2 UVRA, Metabolic Activation: HAMSTER, LIVER, S-9, AROCLOR 1254, Method: STANDARD PLATE): inactive; negative | mutagenic call (Test System: E. COLI, Strain/Indicator: WP2 UVRA, Metabolic Activation: HAMSTER, LIVER, S-9, Method: STANDARD PLATE): inactive; negative | mutagenic call (Test System: E. COLI, Strain/Indicator: WP2 UVRA, Metabolic Activation: MOUSE, LIVER, S-9, AROCLOR 1254, Method: STANDARD PLATE): inactive; negative | mutagenic call (Test System: E. COLI, Strain/Indicator: WP2 UVRA, Metabolic Activation: MOUSE, LIVER, S-9, Method: STANDARD PLATE): inactive; negative | mutagenic call [4]: inactive; negative | mutagenic call (Test System: E. COLI, Strain/Indicator: WP2 UVRA, Metabolic Activation: RAT, LIVER, S-9, AROCLOR 1254, Method: STANDARD PLATE): inactive; negative | mutagenic call (Test System: E. COLI, Strain/Indicator: WP2 UVRA, Metabolic Activation: RAT, LIVER, S-9, Method: STANDARD PLATE): inactive; negative

N
mutagenic call (End Point: IN VIVO MICRONUCLEUS, Test System: BONE MARROW POLYCHROMATIC ERYTHROCYTES, Species: MOUSE, Strain/Sex: DDY/MALE, Route: IP): inactive; negative | mutagenic call (Test System: AMES SALMONELLA TYPHIMURIUM, Strain/Indicator: TA98, Metabolic Activation: NONE): inactive; negative | mutagenic call [1]: inactive; negative | mutagenic call (Test System: AMES SALMONELLA TYPHIMURIUM, Strain/Indicator: TA98, Metabolic Activation: RAT, LIVER, S-9, KC 500): inactive; negative | mutagenic call (Test System: AMES SALMONELLA TYPHIMURIUM, Strain/Indicator: TA98, Metabolic Activation: RAT, LIVER, S-9, KC 500, Method: PREINCUBATION): inactive; negative | mutagenic call (Test System: AMES SALMONELLA TYPHIMURIUM, Strain/Indicator: TA100, Metabolic Activation: NONE): inactive; negative | mutagenic call [2]: inactive; negative | mutagenic call (Test System: AMES SALMONELLA TYPHIMURIUM, Strain/Indicator: TA100, Metabolic Activation: RAT, LIVER, S-9, KC 500): inactive; negative | mutagenic call (Test System: AMES SALMONELLA TYPHIMURIUM, Strain/Indicator: TA100, Metabolic Activation: RAT, LIVER, S-9, KC 500, Method: PREINCUBATION): inactive; negative | mutagenic call (Test System: AMES SALMONELLA TYPHIMURIUM, Strain/Indicator: TA1535, Metabolic Activation: NONE): inactive; negative | mutagenic call [3]: inactive; negative | mutagenic call (Test System: AMES SALMONELLA TYPHIMURIUM, Strain/Indicator: TA1535, Metabolic Activation: RAT, LIVER, S-9, KC 500): inactive; negative | mutagenic call (Test System: AMES SALMONELLA TYPHIMURIUM, Strain/Indicator: TA1535, Metabolic Activation: RAT, LIVER, S-9, KC 500, Method: PREINCUBATION): inactive; negative | mutagenic call (Test System: AMES SALMONELLA TYPHIMURIUM, Strain/Indicator: TA1537, Metabolic Activation: NONE): inactive; negative | mutagenic call (Test System: AMES SALMONELLA TYPHIMURIUM, Strain/Indicator: TA1537, Metabolic Activation: NONE, Method: PREINCUBATION): inactive; negative | mutagenic call (Test System: AMES SALMONELLA TYPHIMURIUM, Strain/Indicator: TA1537, Metabolic Activation: RAT, LIVER, S-9, KC 500): inactive; negative | mutagenic call (Test System: AMES SALMONELLA TYPHIMURIUM, Strain/Indicator: TA1537, Metabolic Activation: RAT, LIVER, S-9, KC 500, Method: PREINCUBATION): inactive; negative | mutagenic call (Test System: AMES SALMONELLA TYPHIMURIUM, Strain/Indicator: TA1538, Metabolic Activation: NONE): inactive; negative | mutagenic call (Test System: AMES SALMONELLA TYPHIMURIUM, Strain/Indicator: TA1538, Metabolic Activation: NONE, Method: PREINCUBATION): inactive; negative | mutagenic call (Test System: AMES SALMONELLA TYPHIMURIUM, Strain/Indicator: TA1538, Metabolic Activation: RAT, LIVER, S-9, KC 500): inactive; negative | mutagenic call (Test System: AMES SALMONELLA TYPHIMURIUM, Strain/Indicator: TA1538, Metabolic Activation: RAT, LIVER, S-9, KC 500, Method: PREINCUBATION): inactive; negative | mutagenic call (Test System: E. COLI, Strain/Indicator: WP2 UVRA, Metabolic Activation: NONE): inactive; negative | mutagenic call (Test System: E. COLI, Strain/Indicator: WP2 UVRA, Metabolic Activation: NONE, Method: PREINCUBATION): inactive; negative | mutagenic call (Test System: E. COLI, Strain/Indicator: WP2 UVRA, Metabolic Activation: RAT, LIVER, S-9, KC 500): inactive; negative | mutagenic call (Test System: E. COLI, Strain/Indicator: WP2 UVRA, Metabolic Activation: RAT, LIVER, S-9, KC 500, Method: PREINCUBATION): inactive; negative

CN(C)CCc1cc(O)ccc1CNc1ccccn1
mutagenic call (Test System: AMES SALMONELLA TYPHIMURIUM, Strain/Indicator: TA97, Metabolic Activation: NONE, Method: STANDARD PLATE): inactive; negative | mutagenic call (Test System: AMES SALMONELLA TYPHIMURIUM, Strain/Indicator: TA97, Metabolic Activation: RAT, LIVER, S-9, AROCLOR 1254, Method: STANDARD PLATE): inactive; negative | mutagenic call (Test System: AMES SALMONELLA TYPHIMURIUM, Strain/Indicator: TA98, Metabolic Activation: NONE, Method: STANDARD PLATE): inactive; negative | mutagenic call (Test System: AMES SALMONELLA TYPHIMURIUM, Strain/Indicator: TA98, Metabolic Activation: RAT, LIVER, S-9, AROCLOR 1254, Method: STANDARD PLATE): inactive; negative | mutagenic call [5]: inactive; negative | mutagenic call (Test System: AMES SALMONELLA TYPHIMURIUM, Strain/Indicator: TA100, Metabolic Activation: RAT, LIVER, S-9, AROCLOR 1254, Method: STANDARD PLATE): inactive; negative | mutagenic call (Test System: AMES SALMONELLA TYPHIMURIUM, Strain/Indicator: TA102, Metabolic Activation: NONE, Method: STANDARD PLATE): inactive; negative | mutagenic call (Test System: AMES SALMONELLA TYPHIMURIUM, Strain/Indicator: TA102, Metabolic Activation: RAT, LIVER, S-9, AROCLOR 1254, Method: STANDARD PLATE): inactive; negative

CC(=O)c1ccc(NO)cc1
mutagenic call [5]: active; positive | mutagenic call (Test System: AMES SALMONELLA TYPHIMURIUM, Strain/Indicator: TA1535, Metabolic Activation: NONE, Method: STANDARD PLATE): inactive; negative | mutagenic call (Test System: E. COLI, Strain/Indicator: WP2 UVRA(P), Metabolic Activation: NONE, Method: STANDARD PLATE): active; positive | mutagenic call (Test System: E. COLI, Strain/Indicator: WP2 UVRA, Metabolic Activation: NONE, Method: FLUCTUATION TEST): inactive; negative | mutagenic call [4]: active; positive
